Measurements as given in US20060104901A1, “Preventing or treating epithelial tissue damage or hair loss” (priority 2002, published 2006).

Tested on: CD1d gene transcription
Assay: CD1d mRNA by Real Time PCR in primary human keratinocytes under H2O2 chemical stress
Type: cell-based
Settings: primary human keratinocytes exposed to 300 μM H2O2, KGM with vs without hydrocortisone, RNA at different times after treatment, FIG. 11
Method: Primary human keratinocytes were grown in complete KGM before being exposed to 300 μM H2O2 as a stress factor. 48 hours after seeding, KGM medium was replaced by KGM without hydrocortisone and cultures were treated with 300 μM of H2O2. Total RNA was extracted at different time after treatment and CD1d mRNA quantified by Real Time PCR.
For Taq Man Assays, Applied Biosystems recommends to use 10 to 100 ng of initial RNA quantity per well. Consequently, first strand cDNA synthesis was performed in a 20 μl volume using 1 μg of total RNA and […] of random hexamers following the manufacturer's recommendations (Superscript™ First-Strand Synthesis System for RT-PCR, 11904-018, Invitrogen). 1 μl of the resulting cDNA samples was used for amplification by Real Time PCR. […]
All the cDNA samples were tested in triplicate. […] The plate was sealed, centrifuged at 2000 rpm for 30 seconds and placed in a 5700 Sequence Detection System for thermal cycling and fluorescence analysis using the following PCR program: […]
Results were analyzed using the GeneAmp® 5700 SDS software. […]
The gene expression fold changes obtained in the test condition compared to the control condition were determined by the comparative Ct method using the following formula: [formula] […]

SMILES: C[C@]12CCC(=O)C=C1CC[C@@H]1[C@@H]2[C@@H](O)C[C@@]2(C)[C@H]1CC[C@]2(O)C(=O)CO [Hydrocortisone]
- CD1d gene transcription (CD1d mRNA, fold change by comparative Ct method): able to down-regulate CD1d expression
- CD1d gene transcription (CD1d mRNA, fold change by comparative Ct method) (listed as hydrocortisone): suppresses CD1d transcription
